Reference: patent publication US11561227B2, “Anti-mitochondrial inhibitors for oncogenic Ras and Myc” (LUNELLA BIOTECH, INC., priority 2017, dated 2023)

Test system: MCF7 cells
Assay: Mammosphere formation in MCF7 cells (rotenone-induced oxidative stress)
Format: cell-based, human
Experimental: Investigation of the mechanism of tumorigenesis may be conducted by transduction of MCF7 cells with c-Myc, H-Ras, or both, and then subjecting the cell lines to phenotypic characterization, such as mammosphere formation. For the mammosphere formation assay inventors employed, a single suspension of MCF7 cells was prepared using enzymatic (lx Trypsin-EDTA, Sigma Aldrich) and manual disaggregation with a 25-gauge needle. Cells were plated at a density of 500 cells/cm^2 in a mammosphere medium (DMEM-F12/B27/20-ng/mlEGF/PenStrep) in non-adherent conditions, in culture dishes coated with 2-hydroxyethylmethacrylate (poly-HEMA, Sigma). Cells were grown for 5 days and maintained in a humidified incubator at 37° C. at an atmospheric pressure in 5% (v/v) carbon dioxide/air. After 5 days in culture, spheres >50 μm were counted using an eye-piece graticule, and the percentage of cells plated which formed spheres was calculated and is referred to as percent mammosphere formation, normalized to vehicle-alone treated controls. Mammosphere assays were performed in triplicate and repeated three times independently.
The inventors hypothesized that c-Myc induces “stemness” of CSCs in part by driving and managing the onset of mitochondrial oxidative stress. To test this hypothesis, inventors used a pharmacological approach to stimulate oxidative stress. Rotenone is a naturally occurring isoflavone that behaves as an inhibitor of complex I and strongly induces mitochondrial oxidative stress. During rotenone treatment, mitochondrial complexes I and III are the major sites of electron leakage, resulting in increased superoxide production. The inventors treated MCF7 cells with increasing concentrations of Rotenone.
To further validate that the effects of low-dose Rotenone were due to oxidative stress, the inventors tested the effects of a mitochondrial-specific antioxidant Mito-tempo. Mito-tempo functions as a reactive oxygen species (ROS) scavenger by targeting superoxide anions generated in mitochondria.

`CC1(C)CC(NC(=O)C[P+](c2ccccc2)(c2ccccc2)c2ccccc2)CC(C)(C)N1[O]` [Mito-tempo] was tested, and the “effect on rotenone-stimulated mammosphere formation” value (MCF7 mammospheres pretreated with rotenone, FIG. 6) was “inhibited the stimulatory effects of rotenone”.
In the case of `C=C(C)[C@H]1Cc2c(ccc3c2O[C@@H]2COc4cc(OC)c(OC)cc4[C@@H]2C3=O)O1` [Rotenone], the “effect on mammosphere formation” value (higher dose Rotenone, MCF7 cells, FIG. 5) is reported as “inhibited mammosphere formation” and the “stimulation of mammosphere formation” value (low-dose Rotenone, MCF7 cells, FIG. 5) is reported as 1.6 to 1.8 fold.
